Data: PMC10056986 (Pharmaceuticals, 2023)
“And” between values parts separate entries of the source, which are not always exact repeats. Identical values can stand only once. Like-named read-outs stand apart in the source and are kept apart here.

Tests used:
M1 = M1 (Homo sapiens, UniProt P11229); test: cell-based
p38 alpha = p38 alpha (Homo sapiens, UniProt Q16539); test: biochemical
A/Anhui/01/2013 (H7N9) = test: microbe, parasite or virus in culture; assay type: cell-based, avian influenza virus; conditions: Influenza A virus, H7N9, MDCK, read-out: IC50 (mean ± SD)
22 GPCR targets = assay type: cell-based, human; conditions: read-out: IC50 (antagonist screening)
5HT1A = 5HT1A (Homo sapiens, UniProt P08908); test: cell-based
Sequence of 5HT1A (P08908 whole entry): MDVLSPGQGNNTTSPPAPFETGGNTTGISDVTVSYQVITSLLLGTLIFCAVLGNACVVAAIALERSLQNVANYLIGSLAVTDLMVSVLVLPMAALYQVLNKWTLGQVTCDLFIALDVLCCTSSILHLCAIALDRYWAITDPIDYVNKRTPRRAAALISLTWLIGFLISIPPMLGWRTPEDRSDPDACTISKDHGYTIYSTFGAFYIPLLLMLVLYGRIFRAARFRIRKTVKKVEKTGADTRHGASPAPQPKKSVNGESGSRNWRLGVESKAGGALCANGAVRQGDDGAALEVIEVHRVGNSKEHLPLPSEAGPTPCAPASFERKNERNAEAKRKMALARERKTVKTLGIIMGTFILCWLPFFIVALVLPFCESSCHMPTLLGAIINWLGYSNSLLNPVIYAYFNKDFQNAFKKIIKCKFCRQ

JAK2 = JAK2 (Homo sapiens, UniProt O60674); test: biochemical
AD2 [1] = assay type: cell-based, human
H1 = H1 (Homo sapiens, UniProt P35367); test: cell-based
Sequence of H1 (P35367 whole entry): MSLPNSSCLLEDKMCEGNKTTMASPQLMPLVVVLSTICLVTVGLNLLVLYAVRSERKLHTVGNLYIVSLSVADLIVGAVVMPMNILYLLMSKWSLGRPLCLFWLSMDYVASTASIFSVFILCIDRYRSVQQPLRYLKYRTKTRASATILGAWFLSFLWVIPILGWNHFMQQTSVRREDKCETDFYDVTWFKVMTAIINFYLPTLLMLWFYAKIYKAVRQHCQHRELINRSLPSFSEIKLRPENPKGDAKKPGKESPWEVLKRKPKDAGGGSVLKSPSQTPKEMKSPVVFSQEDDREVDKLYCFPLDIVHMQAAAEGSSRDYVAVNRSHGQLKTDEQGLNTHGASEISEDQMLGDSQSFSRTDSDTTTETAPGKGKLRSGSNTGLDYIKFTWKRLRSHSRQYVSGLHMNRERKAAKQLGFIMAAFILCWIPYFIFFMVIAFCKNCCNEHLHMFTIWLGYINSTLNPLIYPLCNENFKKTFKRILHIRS

HCV replicon 1b = test: microbe, parasite or virus in culture; assay type: cell-based; conditions: Hepatitis C virus, read-out: EC50 for Virus
CB2 [2] = molecular target: T1, CB2 (Homo sapiens, UniProt P34972); test: cell-based
T1 sequence (P34972 whole entry): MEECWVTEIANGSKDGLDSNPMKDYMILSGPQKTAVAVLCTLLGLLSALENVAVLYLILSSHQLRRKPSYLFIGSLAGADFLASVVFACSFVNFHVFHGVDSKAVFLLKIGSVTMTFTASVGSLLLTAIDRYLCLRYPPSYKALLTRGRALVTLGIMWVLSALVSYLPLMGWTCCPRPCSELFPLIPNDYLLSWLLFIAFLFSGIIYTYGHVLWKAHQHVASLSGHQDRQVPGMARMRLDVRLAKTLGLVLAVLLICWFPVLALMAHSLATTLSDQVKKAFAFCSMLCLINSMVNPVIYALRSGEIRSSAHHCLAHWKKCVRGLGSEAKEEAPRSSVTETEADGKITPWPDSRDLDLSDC

MST4 = MST4 (Homo sapiens, UniProt Q9P289); test: biochemical
op-mu [3] = molecular target: T2, op-mu (Homo sapiens, UniProt P35372); test: cell-based
T2 sequence (P35372 whole entry): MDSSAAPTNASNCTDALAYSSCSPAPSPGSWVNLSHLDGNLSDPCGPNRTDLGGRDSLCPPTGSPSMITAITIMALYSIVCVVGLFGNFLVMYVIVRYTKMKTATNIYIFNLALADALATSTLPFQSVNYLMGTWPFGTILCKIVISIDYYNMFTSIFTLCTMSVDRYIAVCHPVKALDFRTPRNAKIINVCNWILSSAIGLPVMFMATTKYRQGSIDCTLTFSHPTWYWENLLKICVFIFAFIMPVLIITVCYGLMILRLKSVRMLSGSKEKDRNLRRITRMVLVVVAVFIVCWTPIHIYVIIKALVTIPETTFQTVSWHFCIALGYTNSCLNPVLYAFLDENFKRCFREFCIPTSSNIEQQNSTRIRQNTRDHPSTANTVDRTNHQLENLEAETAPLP

[4] = tested on: influenza A virus WSN/33 (H1N1); design: species or system BALB/c mice; conditions: mouse, in vivo
op-mu [5] = molecular target: T2, op-mu; test: cell-based; remark: listed apart in the source
in vitro [6] = conditions: dog, CC50 (mean ± SD)
[7] = tested on: A/Guangzhou/39715/2014 (H5N6); test: microbe, parasite or virus in culture; assay type: cell-based, avian influenza virus; conditions: unidentified influenza virus, H5N6, MDCK, read-out: IC50 (mean ± SD)
CB2 [8] = molecular target: T1, CB2; test: cell-based; remark: listed apart in the source
H2 [9] = molecular target: T3, H2 (Homo sapiens, UniProt P25021); test: cell-based
T3 sequence (P25021 whole entry): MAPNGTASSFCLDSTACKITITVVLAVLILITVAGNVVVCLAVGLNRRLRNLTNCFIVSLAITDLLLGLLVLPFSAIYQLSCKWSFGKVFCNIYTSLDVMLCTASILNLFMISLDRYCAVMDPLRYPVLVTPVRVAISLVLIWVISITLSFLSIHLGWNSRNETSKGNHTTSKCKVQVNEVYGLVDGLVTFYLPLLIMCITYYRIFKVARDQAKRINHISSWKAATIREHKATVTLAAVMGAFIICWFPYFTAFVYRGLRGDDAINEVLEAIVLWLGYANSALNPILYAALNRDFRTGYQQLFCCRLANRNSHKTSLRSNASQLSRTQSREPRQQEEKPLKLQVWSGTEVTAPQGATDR

D1 = D1 (Homo sapiens, UniProt P21728); test: cell-based
Sequence of D1 (P21728 whole entry): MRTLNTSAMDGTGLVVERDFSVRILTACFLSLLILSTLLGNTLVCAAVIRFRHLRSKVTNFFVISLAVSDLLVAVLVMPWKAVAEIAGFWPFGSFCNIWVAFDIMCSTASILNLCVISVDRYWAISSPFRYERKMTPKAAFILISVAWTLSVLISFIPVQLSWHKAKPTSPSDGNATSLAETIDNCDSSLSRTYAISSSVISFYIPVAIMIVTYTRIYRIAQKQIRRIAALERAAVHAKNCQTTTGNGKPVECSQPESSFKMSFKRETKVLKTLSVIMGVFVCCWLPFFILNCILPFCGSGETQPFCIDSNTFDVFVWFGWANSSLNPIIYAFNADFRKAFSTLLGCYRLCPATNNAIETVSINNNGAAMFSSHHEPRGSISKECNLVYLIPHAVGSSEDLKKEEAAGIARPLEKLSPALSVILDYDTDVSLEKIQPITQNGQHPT

[10] = tested on: Influenza virus A/Weiss/43(H1N1); test: microbe, parasite or virus in culture; assay type: cell-based; conditions: H1N1, MDCK, read-out: EC50 (mean ± SD)
RSV long = test: microbe, parasite or virus in culture; assay type: cell-based, respiratory syncytial virus; conditions: human respiratory syncytial virus, HEp-2, read-out: EC50 for Virus
[11] = tested on: Influenza virus A/California/07/2009 (H1N1)pdm09; test: microbe, parasite or virus in culture; assay type: cell-based; conditions: H1N1, MDCK, read-out: EC50 (mean ± SD)
AD2 [12] = assay type: cell-based, human; remark: listed apart in the source
H2 [13] = molecular target: T3, H2; test: cell-based; remark: listed apart in the source
M2 = M2 (Homo sapiens, UniProt P08172); test: cell-based
FGFR1 = FGFR1 (Homo sapiens, UniProt P11362); test: biochemical
5HT2A = 5HT2A (Homo sapiens, UniProt P28223); test: cell-based
Sequence of 5HT2A (P28223 whole entry): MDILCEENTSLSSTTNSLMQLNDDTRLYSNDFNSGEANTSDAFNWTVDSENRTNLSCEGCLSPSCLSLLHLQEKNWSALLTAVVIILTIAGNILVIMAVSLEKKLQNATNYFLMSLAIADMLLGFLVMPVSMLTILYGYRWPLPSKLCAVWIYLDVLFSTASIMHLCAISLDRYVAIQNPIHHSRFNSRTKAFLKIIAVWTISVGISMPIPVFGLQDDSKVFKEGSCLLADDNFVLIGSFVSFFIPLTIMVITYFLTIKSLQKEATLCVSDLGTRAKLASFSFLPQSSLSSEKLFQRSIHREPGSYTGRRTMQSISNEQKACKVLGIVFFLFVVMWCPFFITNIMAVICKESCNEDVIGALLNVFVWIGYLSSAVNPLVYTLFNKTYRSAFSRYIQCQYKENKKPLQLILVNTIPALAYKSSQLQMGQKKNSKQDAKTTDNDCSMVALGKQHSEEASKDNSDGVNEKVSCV

CDK2 = CDK2 (Homo sapiens, UniProt P24941); test: biochemical
[14] = tested on: A/Qingyuan/GIRD01/2017 (H7N9); test: microbe, parasite or virus in culture; assay type: cell-based, avian influenza virus; conditions: Influenza A virus, H7N9, MDCK, read-out: IC50 (mean ± SD)
[15] = rat, in vivo, 15 mg/kg
Aurora A = Aurora A (Homo sapiens, UniProt O14965); test: biochemical
D2 = D2 (Homo sapiens, UniProt P14416); test: cell-based
Sequence of D2 (P14416 whole entry): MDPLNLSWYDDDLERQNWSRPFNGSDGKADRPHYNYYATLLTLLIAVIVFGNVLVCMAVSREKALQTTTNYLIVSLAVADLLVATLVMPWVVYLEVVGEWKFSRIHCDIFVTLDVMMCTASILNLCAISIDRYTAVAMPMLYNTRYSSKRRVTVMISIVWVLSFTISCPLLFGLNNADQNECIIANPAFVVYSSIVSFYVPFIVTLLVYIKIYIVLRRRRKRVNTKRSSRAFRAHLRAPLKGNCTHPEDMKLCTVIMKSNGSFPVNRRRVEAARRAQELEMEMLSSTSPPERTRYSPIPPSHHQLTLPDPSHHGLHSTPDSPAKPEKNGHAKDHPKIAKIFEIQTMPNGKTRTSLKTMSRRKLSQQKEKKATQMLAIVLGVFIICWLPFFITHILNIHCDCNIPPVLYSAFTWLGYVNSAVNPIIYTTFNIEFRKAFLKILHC

LCK = LCK (Homo sapiens, UniProt P06239); test: biochemical
[16] = tested on: influenza A virus WSN/33 (H1N1); design: species or system BALB/c mice; conditions: mouse, in vivo; remark: listed apart in the source
[17] = tested on: Influenza virus A/Hong Kong/8/68 (H3N2); test: microbe, parasite or virus in culture; assay type: cell-based; conditions: unidentified influenza virus, H3N2, MDCK, read-out: EC50 (mean ± SD)
Beta2 = Beta2 (Homo sapiens, UniProt P07550); test: cell-based
Sequence of Beta2 (P07550 whole entry): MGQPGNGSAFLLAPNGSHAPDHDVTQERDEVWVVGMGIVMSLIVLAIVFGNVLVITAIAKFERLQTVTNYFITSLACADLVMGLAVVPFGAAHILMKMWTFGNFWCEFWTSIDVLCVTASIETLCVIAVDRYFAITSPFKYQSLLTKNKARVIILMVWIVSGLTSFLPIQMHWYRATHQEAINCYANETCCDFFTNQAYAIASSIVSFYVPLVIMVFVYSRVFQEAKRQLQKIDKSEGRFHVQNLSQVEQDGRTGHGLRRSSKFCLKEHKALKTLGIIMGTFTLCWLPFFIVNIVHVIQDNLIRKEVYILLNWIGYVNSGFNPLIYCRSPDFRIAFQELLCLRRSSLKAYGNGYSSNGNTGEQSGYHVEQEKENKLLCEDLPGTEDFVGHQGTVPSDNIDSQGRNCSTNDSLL

in vitro [18] = conditions: rhesus monkey
V1a = V1a (Homo sapiens, UniProt P37288); test: cell-based
Sequence of V1a (P37288 whole entry): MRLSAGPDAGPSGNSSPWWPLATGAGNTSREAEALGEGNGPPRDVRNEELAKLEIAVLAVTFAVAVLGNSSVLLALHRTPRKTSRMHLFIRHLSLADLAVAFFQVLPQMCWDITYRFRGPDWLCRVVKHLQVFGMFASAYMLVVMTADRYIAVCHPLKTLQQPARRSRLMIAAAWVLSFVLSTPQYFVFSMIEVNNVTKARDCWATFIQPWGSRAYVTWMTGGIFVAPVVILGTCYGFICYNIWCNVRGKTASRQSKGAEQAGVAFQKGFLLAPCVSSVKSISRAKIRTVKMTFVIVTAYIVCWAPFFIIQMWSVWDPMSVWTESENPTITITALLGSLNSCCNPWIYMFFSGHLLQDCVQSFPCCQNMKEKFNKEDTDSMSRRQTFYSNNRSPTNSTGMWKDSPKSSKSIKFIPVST

[19] = 10,000 nM, read-out: Inhibition at Maximum Concentration (%)

Sequence of M1 (P11229 whole entry): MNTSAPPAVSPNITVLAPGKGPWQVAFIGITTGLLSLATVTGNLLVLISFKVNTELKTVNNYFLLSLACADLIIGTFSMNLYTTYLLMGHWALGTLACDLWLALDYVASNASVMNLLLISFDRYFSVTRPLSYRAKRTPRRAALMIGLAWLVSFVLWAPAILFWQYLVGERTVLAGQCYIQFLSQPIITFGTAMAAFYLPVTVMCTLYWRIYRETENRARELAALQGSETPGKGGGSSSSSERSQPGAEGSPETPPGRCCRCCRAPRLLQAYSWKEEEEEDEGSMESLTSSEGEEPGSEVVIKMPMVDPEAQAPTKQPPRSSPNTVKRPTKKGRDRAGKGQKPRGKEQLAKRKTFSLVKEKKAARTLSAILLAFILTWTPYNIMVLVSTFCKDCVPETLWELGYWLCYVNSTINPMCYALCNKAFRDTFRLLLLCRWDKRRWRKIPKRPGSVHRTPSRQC

O=C(O)[C@H]1C2CCC(CC2)[C@@H]1Nc1nc(-c2n[nH]c3ncc(F)cc23)nc(C2CC2)c1F [ZSP1273]
IC50 (M1): > 10 µM
inhibition at 10 µM (M1; [19]): -0.95%
IC50 (p38 alpha): > 10 µM
IC50 (A/Anhui/01/2013 (H7N9)): 0.000627 ± 0.000312 µM
IC50 (22 GPCR targets): > 10 µM
EC50 (5HT1A): > 12 µM
Activity at Maximum Concentration (%) (5HT1A; 12,000 nM): 16.98%
IC50 (JAK2): > 10 µM
IC50 (AD2 [1]): > 10 µM
Inhibition at Maximum Concentration (%) (AD2 [1]; 10,000 nM): 43.84%
IC50 (H1): > 10 µM
inhibition at 10 µM (H1; [19]): 13.4%
EC50 (HCV replicon 1b): > 10 µM
EC50 (CB2 [2]): > 12 µM
Activity at Maximum Concentration (%) (CB2 [2]; 12,000 nM): −17.1%
IC50 (MST4): > 10 µM
IC50 (op-mu [3]): > 10 µM
inhibition at 10 µM (op-mu [3]; [19]): -24.5%
body weight of mice [4]: did not significantly reduce the body weight
survival rate vs vehicle [4]: could improve the survival rate
time of death relative to vehicle group [4]: died later than those in the vehicle group
EC50 (op-mu [5]): > 12 µM
Activity at Maximum Concentration (%) (op-mu [5]; 12,000 nM): −3.45%
CC50 (in vitro [6]): 1.63 ± 0.87 µM
IC50 [7]: 0.000245 ± 3e-05 µM
IC50 (CB2 [8]): > 10 µM
inhibition at 10 µM (CB2 [8]; [19]): 42%
EC50 (H2 [9]): > 12 µM
Activity at Maximum Concentration (%) (H2 [9]; 12,000 nM): −3.46%
IC50 (D1): > 10 µM
inhibition at 10 µM (D1; [19]): -16.7%
EC50 [10]: 0.012 ± 0.002 nM
EC50 (RSV long): > 10 µM
EC50 [11]: 0.02 ± 0.003 nM
EC50 (AD2 [12]): > 12 µM
Activity at Maximum Concentration (%) (AD2 [12]; 12,000 nM): 3.38%
IC50 (H2 [13]): > 10 µM
inhibition at 10 µM (H2 [13]; [19]): 42.4%
EC50 (M2): > 12 µM
Activity at Maximum Concentration (%) (M2; 12,000 nM): −3%
IC50 (FGFR1): > 10 µM
EC50 (5HT2A): > 12 µM
Activity at Maximum Concentration (%) (5HT2A; 12,000 nM): −21.27%
IC50 (CDK2): > 10 µM
IC50 [14]: 0.000777 ± 0.000427 µM
accumulation (AUC0-last and Cmax, day 7 vs day 1) [15]: No significant accumulation
IC50 (Aurora A): 0.527 µM
IC50 (D2): > 10 µM
inhibition at 10 µM (D2; [19]): 13.6%
IC50 (LCK): > 10 µM
day on which mice began to regain body weight [16]: 4 days and 5 days
decrease of viral load in lung tissues vs vehicle ([16]; 3 mg/kg): 2.37 log10
decrease of viral load in lung tissues vs vehicle ([16]; 10 mg/kg): 3.1 log10 and 4.18 log10
decrease of viral load in lung tissues vs vehicle ([16]; 30 mg/kg): 4.97 log10
viral titer in lung tissues ([16]; 30 mg/kg): < 2.0 log10
EC50 [17]: 0.019 ± 0.01 nM
IC50 (Beta2): > 10 µM
inhibition at 10 µM (Beta2; [19]): -33.2%
CC50 (in vitro [18]): > 10 µM
EC50 (V1a): > 12 µM
Activity at Maximum Concentration (%) (V1a; 12,000 nM): 6.27%
